Data taken from EP4043444A1, “SUBSTITUTED ISOXAZOLINE DERIVATIVES” (priority 2021, dated 2022).
Where two headings read alike, the source gives them in different places.

How the values were obtained:
Format in all cases: in vivo
[1] = tested on: Green Peach Aphid (Myzus persicae) (mixed life stages); assay: Green Peach Aphid control through systemic means, artificial diet under artificial membrane; settings: Myzus persicae, 72 h, read-out: mortality (Aphid mortality)
Source text: For evaluating control of Green Peach Aphid through systemic means the test unit consisted of 96-well-microtiter plates containing liquid artificial diet under an artificial membrane. The compounds were formulated using a solution containing 75% v/v water and 25% v/v DMSO. Different concentrations of formulated compounds were pipetted into the aphid diet, using a custom-built pipette, at two replications. After application, 5 - 8 adult aphids were placed on the artificial membrane inside the microtiter plate wells. The aphids were then allowed to suck on the treated aphid diet and incubated at about 23 + 1°C and about 50 + 5 % relative humidity for 3 days. Aphid mortality and fecundity was then visually assessed.

[2] = tested on: Tobacco Budworm (Heliothis virescens); assay: Tobacco Budworm control, 96-well microtiter plates with insect diet and eggs; settings: Heliothis virescens, 120 h, read-out: mortality (Egg and larval mortality)
Method: For evaluating control of Tobacco Budworm, the test unit consisted of 96-well-microtiter plates containing an insect diet and 15-25 H. virescens eggs. The compounds were formulated using a solution containing 75% v/v water and 25% v/v DMSO. Different concentrations of formulated compounds were sprayed onto the insect diet at 10µl, using a custom-built micro atomizer, at two replications. After application, microtiter plates were incubated at about 28 + 1°C and about 80 + 5 % relative humidity for 5 days. Egg and larval mortality was then visually assessed.

[3] = tested on: Greenhouse Whitefly (Trialeurodes vaporarirorum); assay: Greenhouse Whitefly control, 96-well microtiter plates with eggplant leaf disk and eggs; settings: foliar, 144 h, read-out: mortality (Mortality of hatched crawlers)
Method: For evaluating control of Greenhouse Whitefly, the test unit consisted of 96-well-microtiter plates containing a leaf disk of eggplant leaf disk with Whitefly eggs. The compounds or mixtures were formulated using a solution containing 75% water and 25% DMSO. Different concentrations of formulated were sprayed onto the […] at 2.5µl, using a custom-built micro atomizer, at two replications. After application, microtiter plates were incubated at 23 + 1°C, 65 + 5% RH for 6 days. Mortality of hatched crawlers was then visually assessed.

[4] = tested on: Boll weevil (Anthonomus grandis); assay: Boll weevil control, 96-well microtiter plates with insect diet and eggs; settings: Anthonomus grandis, 120 h, read-out: mortality (Egg and larval mortality)
Method: For evaluating control of boll weevil, the test unit consisted of 96-well-microtiter plates containing an insect diet and 5-10 A. grandis eggs.
The compounds were formulated using a solution containing 75% v/v water and 25% v/v DMSO. Different concentrations of formulated compounds were sprayed onto the insect diet at 5µl, using a custom-built micro atomizer, at two replications.
After application, microtiter plates were incubated at about 25 + 1°C and about 75 + 5 % relative humidity for 5 days. Egg and larval mortality were then visually assessed.

[5] = tested on: Yellow Fever Mosquito (Aedes aegypti); assay: whole plant or invertebrate; settings: 48 h, 2 days, in comparison with untreated controls, read-out: mortality (Larval mortality)
Method: For evaluating control of Yellow Fever Mosquito the test unit consisted of 96-well-microtiter plates containing 200µl of tap water per well and 5-15 freshly hatched A. aegypti larvae. The active compounds were formulated using a solution containing 75% (v/v) water and 25% (v/v) DMSO. Different concentrations of formulated compounds or mixtures were sprayed onto the insect diet at 2.5µl, using a custom-built micro atomizer, at two replications.
After application, microtiter plates were incubated at 28 + 1°C, 80 + 5 % RH for 2 days. Larval mortality was then visually assessed.

[6] = 2500ppm, sprayed onto insect diet, 5 days, in comparison with untreated controls

Measured: mortality at 2500 ppm

O=C(Nc1ccc(F)cc1F)c1cc(NC2=NOC(c3cccc(C(F)(F)F)c3)(C(F)(F)F)C2)ccc1Cl (stereo not shown) [I-20, 2-chloro-N-(2,4-difluorophenyl)-5-[[5-(trifluoromethyl)-5-[3-(trifluoromethyl)phenyl]-4H-isoxazol-3-yl]amino]benzamide]
≥ 75%: [1] | [2]; [6] | [3] | [4]

O=C(N[C@@H]1CON(CC(F)(F)F)C1=O)c1cc(NC2=NOC(c3cc(Cl)c(F)c(Cl)c3)(C(F)(F)F)C2)ccc1Cl (stereo partly drawn) [I-119, 2-chloro-5-[[5-(3,5-dichloro-4-fluoro-phenyl)-5-(trifluoromethyl)-4H-isoxazol-3-yl]amino]-N-[(4R)-3-oxo-2-(2,2,2-trifluoroethyl)isoxazolidin-4-yl]benzamide]
≥ 75%: [1] | [2] | [4] | [5]

N#CC1(NC(=O)c2cc(NC3=NOC(c4cc(Cl)cc(Cl)c4)(C(F)(F)F)C3)ccc2OC(F)(F)F)CC1 (stereo not shown) [I-150]
≥ 75%: [1] | [2]; [6] | [4] | [5]

O=C(Nc1ccc(F)cc1F)c1cc(NC2=NOC(c3cc(Cl)cc(Cl)c3)(C(F)(F)F)C2)ccc1F (stereo not shown) [I-154]
≥ 75%: [1] | [2]; [6] | [4] | [5]

O=C(Nc1ccc(F)cc1F)c1cc(NC2=NOC(c3cc(Cl)cc(Cl)c3)(C(F)(F)F)C2)ccc1OC(F)F (stereo not shown) [I-157]
≥ 75%: [1] | [2]; [6] | [4] | [5]

O=C(Nc1ccc(F)cc1F)c1cc(NC2=NOC(c3cc(Cl)cc(Cl)c3)(C(F)(F)F)C2)ccc1C(F)(F)F (stereo not shown) [I-158]
≥ 75%: [1] | [2]; [6] | [4] | [5]

CCN1OC[C@@H](NC(=O)c2cc(NC3=NOC(c4cc(Cl)cc(Cl)c4)(C(F)(F)F)C3)ccc2F)C1=O (stereo partly shown) [I-162]
≥ 75%: [1] | [2]; [6] | [4] | [5]

CCN1OC[C@@H](NC(=O)c2cc(NC3=NOC(c4cc(Cl)cc(Cl)c4)(C(F)(F)F)C3)ccc2C)C1=O (stereo partly shown) [I-163]
≥ 75%: [1] | [2]; [6] | [4] | [5]

CCN1OC[C@@H](NC(=O)c2cc(NC3=NOC(c4cc(Cl)cc(Cl)c4)(C(F)(F)F)C3)ccc2C(F)(F)F)C1=O (stereo partly shown) [I-166]
≥ 75%: [1] | [2]; [6] | [4] | [5]

Cc1ccc(NC2=NOC(c3cc(Cl)cc(Cl)c3)(C(F)(F)F)C2)cc1C(=O)NC1CC1 (stereo not shown) [I-169]
≥ 75%: [1] | [2]; [6] | [4] | [5]

O=C(NC1CC1)c1cc(NC2=NOC(c3cc(Cl)cc(Cl)c3)(C(F)(F)F)C2)ccc1OC(F)(F)F (stereo not shown) [I-172]
≥ 75%: [1] | [2]; [6] | [4] | [5]

O=C(NCC(F)(F)F)c1cc(NC2=NOC(c3cc(Cl)cc(Cl)c3)(C(F)(F)F)C2)ccc1OC(F)F (stereo not shown) [I-178]
≥ 75%: [1] | [2]; [6] | [4] | [5]

O=C(NCC(F)(F)F)c1cc(NC2=NOC(c3cc(Cl)cc(Cl)c3)(C(F)(F)F)C2)ccc1OC(F)(F)F (stereo not shown) [I-179]
≥ 75%: [1] | [2]; [6] | [4] | [5]
